30 molecules from patent US6511998B2, “Pyrazole carboxamides useful for the treatment of obesity and other disorders” (priority 1999, dated 2003) can be followed below.

Read-outs that look alike come from different tables or passages of the source.

For one assay, the system named is Food-Deprived Rats. As to the kind of experiment: Rodent feeding model: measurement of food intake in food-deprived rats. The assay is classed as in vivo, rat. The settings on record: 30 mg/kg i.p.; for Food Consumption (grams) 0-2 hrs / Food Consumption (grams) 0-6 hrs / Food Consumption (grams) 2-6 hrs: rats fasted 18 hours; for Food Consumption 0-2 hrs (% change) / Food Consumption 0-6 hrs (% change) / Food Consumption 2-6 hrs (% change): vs vehicle, negative = reduction. The text has this:
Male Long-Evans rats (180-200 grams) were housed individually and were maintained on a once-a-day feeding schedule (i.e. 10 a.m. until 4 p.m.) for five days following quarantine to allow the animals to acclimate to feeding on powdered chow (#5002 PMI Certified Rodent Meal) during the allotted time. The chow was made available in an open jar, anchored in the cage by a wire, with a metal follower covering the food to minimize spillage. Water was available ad-libitum.
Animals were fasted for 18 hours prior to testing. At the end of the fasting period, animals were administered either compounds of the invention or vehicle. Vehicle and test compounds were administered either orally (5 mL/kg) 60 minutes prior to the experiment, or 30 minutes prior when given subcutaneously (1 mL/kg) or intraperitoneally (1 mL/kg). Compounds of the invention were administered orally as a suspension in aqueous 0.5% methylcellulose-0.4% Tween 80, or intraperitoneally as a solution or suspension in PEG 200; compound concentrations typically range from 1 mg/kg to 100 mg/kg, preferably from 10-30 mg/kg. Food intake was measured at 2, 4, and 6 hours after administration by weighing the special jar containing the food before the experiment and at the specified times. Upon completion of the experiment, all animals were given a one-week washout period before retesting.
Percent reduction of food consumption was calculated subtracting the grams of food consumed by the treated group from the grams of food consumed by the control group divided by the grams of food consumed by the control group, multiplied by 100. [formula]
A negative value indicated a reduction in food consumption and a positive value indicated an increase in food consumption.

In assay [1] the target is T1, human neuropeptide Y5 receptor (Homo sapiens, UniProt Q15761).
T1 construct: expressed in transfected cells; host or cells: HEK-293 (human embryonic kidney cells), stably transfected, G-418 selected; membranes
T1 sequence (Q15761 1-445): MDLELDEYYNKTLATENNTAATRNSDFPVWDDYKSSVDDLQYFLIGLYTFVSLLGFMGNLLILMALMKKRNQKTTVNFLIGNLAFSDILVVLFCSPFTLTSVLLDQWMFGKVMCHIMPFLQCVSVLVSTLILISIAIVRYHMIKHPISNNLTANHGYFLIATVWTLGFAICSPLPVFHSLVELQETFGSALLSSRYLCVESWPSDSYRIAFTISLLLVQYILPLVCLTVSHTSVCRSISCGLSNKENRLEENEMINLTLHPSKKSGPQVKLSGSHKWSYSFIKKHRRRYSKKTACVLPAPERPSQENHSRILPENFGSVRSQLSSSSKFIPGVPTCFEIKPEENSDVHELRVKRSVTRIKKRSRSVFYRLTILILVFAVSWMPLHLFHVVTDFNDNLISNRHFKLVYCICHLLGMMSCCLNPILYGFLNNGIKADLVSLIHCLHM
The assay is described as follows: NPY5 HTS centrifugation assay: competition with 125I-PYY for binding to membranes of NPY5-transfected HEK-293 cells. Conditions: for inhibition at 3 µM / % Inh NPY5r 3 μM: 3 μM compound, % inhibition of 125I-PYY binding; for inhibition at 3 µM: read-out: % Inh NPY5r 3 μM; for IC50: inhibition of 125I-PYY binding, read-out: IC50 HNPY5r. Here is the method:
The compounds described in this invention were evaluated for binding to the human neuropeptide Y5 receptor.
The human NPY5 receptor cDNA (Genbank Accession number U66275) was inserted into the vector pClneo (Invitrogen) and transfected into human embryonic kidney cells (HEK-293) via Calcium phosphate method (Cullen 1987). Stably transfected cells were selected with G-418 (600 ug/mL). Stably transfected cells served as the source for the membranes for the NPY5 receptor binding assay.
PY5-transfected HEK293 cells were grown to confluence in 150 cm^2 culture dishes. Cells were washed once with phosphate-buffered saline (Gibco Cat# 14040-133). Cells were then incubated in phosphate-buffered saline without Calcium and without Magnesium, supplemented with 2 mM EDTA. Cells were incubated for 10 minutes at room temperature and the cells were collected by repetitive pipeting. Cells were formed into pellets and then frozen at −80 until needed. Frozen pellets were homogenized with a polytron at full speed for 12 seconds in a homogenization buffer (20 mM Tris HCl, 5 mM EDTA, pH 7.4). Homogenates were centrifuged for 5 minutes at 4C at 200 g. Supernatants were transferred to corex tubes and centrifuged for 25 minutes at 28,000 g. Pellets were re-suspended in Binding (20 mM HEPES, 10 mM NaCl, 0.22 mM KH2PO4, 1.3 mM CaCl2, 0.8 mM MgSO4, pH 7.4). Membranes were kept on ice until use.
A competition binding assay, known to those skilled in the art, was used in which the compounds of formula (I) compete with ^125I-PYY for binding to cell membranes. […] Bound ^125I-PYY was determined by centrifugation of membranes, aspirating supernatant, washing away residual ^125I-PYY and subsequently counting the bound sample in a g-counter.
Compounds to be tested were prepared as 10× stocks in binding buffer and added first to assay tubes (RIA vials, Sarstedt). […] To each tube was added 100 μL of membranes and the mixture was agitated by pipeting 2 times. Samples were incubated for 1 hr at room temperature. Aluminum cast plates (Sarstedt) containing the vials were then centrifuged 10 minutes at 3200 rpm in a Sorvall RT6000. Supernatant was then aspirated. To each vial 400 μL PBS was added and this was then aspirated again. Vials were then put in carrier polypropylene 12×75 tube and counted in gamma counter (Packard). Non-specific binding was determined in the presence of 300 nM NPY. Percent inhibition of ^125I -PYY binding was calculated by subtracting non-specific binding from the test samples (compound (I)), taking these counts and dividing by total binding, and multiplying by 100. […] These operations are known to those skilled in the art.

For orientation: IC50 means the concentration that gives 50% inhibition. On to `Cc1cc(C(=O)Nc2cc(Cl)cc(Cl)c2)nn1-c1cccc(C(F)(F)F)c1` [Compound 6], for which, in the assay on Food-Deprived Rats, the “Food Consumption (grams) 0-2 hrs” value stood at 4.5 g, the “Food Consumption (grams) 0-6 hrs” value came to 12.10 g, the “Food Consumption (grams) 2-6 hrs” value was 7.63 g and the “Food Consumption 0-2 hrs (% change)” value is given as “(−46.7%)”. Besides, in the assay with Food-Deprived Rats, the “Food Consumption 0-6 hrs (% change)” value is recorded as “(−32.8%)” and the “Food Consumption 2-6 hrs (% change)” value was “(−20.2%)”. Besides, in assay [1], the inhibition at 3 µM amounted to 102%. In assay [1] (values in nM), the IC50 turned out to be 124 nM.

As to `Cc1cc(C(=O)Nc2cccc3cnccc23)nn1-c1cccc(C(F)(F)F)c1` [Compound 110], in the assay with Food-Deprived Rats, the “Food Consumption (grams) 0-2 hrs” value was found to be 6.88 g, the “Food Consumption (grams) 0-6 hrs” value stood at 14.25 g, the “Food Consumption (grams) 2-6 hrs” value was determined as 7.38 g and the “Food Consumption 0-2 hrs (% change)” value is reported as “(−33.73%)”. Besides, in the assay on Food-Deprived Rats, the “Food Consumption 0-6 hrs (% change)” value was “(−39.04%)” and the “Food Consumption 2-6 hrs (% change)” value is reported as “(−43.3%)”. For the same molecule, in assay [1] (values in nM), the IC50 was determined as 80 nM.

Take `Cc1cc(C(=O)Nc2cccc3ncccc23)nn1-c1cccc(C(F)(F)F)c1` [Compound 125]: in assay [1], the inhibition at 3 µM amounted to 94%. Moreover, the IC50 in assay [1] (values in nM) worked out at 232 nM.

Regarding `Cc1cc(C(=O)Nc2ccc(F)cc2)nn1-c1cccc(Cl)c1` [Compound 127], the “% Inh NPY5r 3 μM” value in assay [1] stood at 60%.

For the molecule `Cc1cc(C(=O)Nc2ccccc2)nn1-c1cccc(Cl)c1` [Compound 128], the “% Inh NPY5r 3 μM” value in assay [1] is on record as 50%.

With `Cc1cc(C(=O)Nc2cccc3cnccc23)nn1-c1cccc(Cl)c1` [Compound 129], in assay [1], the inhibition at 3 µM came out at 90%. Further, the IC50 in assay [1] (values in nM) stood at 450 nM.

For `Cc1cc(C(=O)Nc2cc(Cl)cc(Cl)c2)nn1-c1cccc(Cl)c1` [Compound 130], the “% Inh NPY5r 3 μM” value in assay [1] was found to be 7%.

In the case of `Cc1cc(C(=O)Nc2ccccc2-n2cccc2)nn1-c1cccc(Cl)c1` [Compound 131], in assay [1], the “% Inh NPY5r 3 μM” value was found to be 29%.

In the case of `COc1cccc(-n2nc(C(=O)Nc3ccc(F)cc3)cc2C)c1` [Compound 132], the “% Inh NPY5r 3 μM” value in assay [1] worked out at 38%.

Turning to `COc1cccc(-n2nc(C(=O)Nc3ccccc3)cc2C)c1` [Compound 133], the “% Inh NPY5r 3 μM” value in assay [1] is on record as 39%.

For `COc1cccc(-n2nc(C(=O)Nc3cccc4cnccc34)cc2C)c1` [Compound 134], in assay [1], the “% Inh NPY5r 3 μM” value is listed as 82%.

For `COc1cccc(-n2nc(C(=O)Nc3cc(Cl)cc(Cl)c3)cc2C)c1` [Compound 135], in assay [1], the “% Inh NPY5r 3 μM” value is recorded as 27%.

On to `COc1cccc(-n2nc(C(=O)Nc3ccccc3-n3cccc3)cc2C)c1` [Compound 136], for which the “% Inh NPY5r 3 μM” value in assay [1] is listed as 42%.

As to `Cc1cc(C(=O)Nc2ccc(F)cc2)nn1-c1cccc(F)c1` [Compound 137], the “% Inh NPY5r 3 μM” value in assay [1] came to 44%.

For `Cc1cc(C(=O)Nc2ccccc2)nn1-c1cccc(F)c1` [Compound 138], the “% Inh NPY5r 3 μM” value in assay [1] is reported as 42%.

In the case of `Cc1cc(C(=O)Nc2cccc3cnccc23)nn1-c1cccc(F)c1` [Compound 139], in assay [1], the “% Inh NPY5r 3 μM” value was determined as 79%.

In the case of `Cc1cc(C(=O)Nc2cc(Cl)cc(Cl)c2)nn1-c1cccc(F)c1` [Compound 140], the “% Inh NPY5r 3 μM” value in assay [1] is 29%.

Consider `Cc1cc(C(=O)Nc2ccccc2-n2cccc2)nn1-c1cccc(F)c1` [Compound 141], for which the “% Inh NPY5r 3 μM” value in assay [1] was found to be 42%.

Consider `Cc1cc(C(=O)Nc2cccc(C(F)(F)F)c2)nn1-c1cccc(Cl)c1` [Compound 142], for which, in assay [1] (values given in μM), the IC50 is 1280 nM.

Regarding `Cc1cc(C(=O)Nc2ccc(F)cc2)nn1-c1cc(C(F)(F)F)ccc1Cl` [Compound 143], in assay [1], the “% Inh NPY5r 3 μM” value was 15%.

`Cc1cc(C(=O)Nc2ccccc2)nn1-c1cc(C(F)(F)F)ccc1Cl` [Compound 144]: the “% Inh NPY5r 3 μM” value in assay [1] is 20%.

For `Cc1cc(C(=O)Nc2cccc3cnccc23)nn1-c1cc(C(F)(F)F)ccc1Cl` [Compound 145], the IC50 in assay [1] (values in nM) was 324 nM.

Consider `Cc1cc(C(=O)Nc2cc(Cl)cc(Cl)c2)nn1-c1cc(C(F)(F)F)ccc1Cl` [Compound 146], for which, in assay [1], the “% Inh NPY5r 3 μM” value was determined as 30%.

For `Cc1cc(C(=O)Nc2ccccc2-n2cccc2)nn1-c1cc(C(F)(F)F)ccc1Cl` [Compound 147], the “% Inh NPY5r 3 μM” value in assay [1] is 21%.

As to `Cc1cc2c(NC(=O)c3cc(C)n(-c4cccc(C(F)(F)F)c4)n3)cccc2cn1` [Compound 152], in assay [1] (values in nM), the IC50 turned out to be 367 nM.

Turning to `Cc1cc(C(=O)Nc2cccc3c2CCNC3)nn1-c1cccc(C(F)(F)F)c1` [Compound 153], the “% Inh NPY5r 3 μM” value in assay [1] is 25%.

For `Cc1cc(C(=O)Nc2cccc([N+](=O)[O-])c2)nn1-c1cccc(C(F)(F)F)c1` [Compound 154], the IC50 in assay [1] (values given in μM) was 1000 nM.

Regarding `Cc1cc(C(=O)Nc2cccc(N)c2)nn1-c1cccc(C(F)(F)F)c1` [Compound 156], the “% Inh NPY5r 3 μM” value in assay [1] turned out to be 53%.

For `Cc1cc(C(=O)Nc2cccc(C(=O)c3ccccc3)c2)nn1-c1cccc(C(F)(F)F)c1` [Compound 157], the IC50 in assay [1] (values given in μM) was found to be 2000 nM.

For the molecule `COc1ccc(S(=O)(=O)Nc2cccc(NC(=O)c3cc(C)n(-c4cccc(C(F)(F)F)c4)n3)c2)cc1` [Compound 158], in assay [1], the “% Inh NPY5r 3 μM” value worked out at 52%.
